# Test results from patent US7638486B2, “Method for promoting hard tissue formation” (Acologix, Inc., priority 2005, dated 2009).
# How the values were obtained:
# [1] = system: primary osteoblasts collected from fetal mouse calvaria; assay: Alkaline phosphatase (ALP) activity in primary osteoblasts under suboptimal BMP-2; assay type: cell-based
# Method: The peptide of SEQ ID No. 8 was added to this culture system at 0, 0.2, 0.4, 1.0, 2.0, and 4.0 μM. The levels of ALP were evaluated on days 0, 3, and 7.
# COX-2 mRNA [2] = assay: Gene expression microarray analysis in Clonetics hMSC cells; assay type: cell-based, human; settings: peptide 1000 ng/ml
# Method: Materials and Methods: The effect of the peptide of SEQ ID No. 8 treatment on gene expression was assessed in the Clonetics hMSC cells using gene expression microarray analysis as previously described (Locklin et al., 2001). Briefly, cells were plated in five T-150 vented flasks at a density of 1.0×10^6 cells per flask in growth medium and cultured at 37° C. for 48 hours. Flasks containing either vehicle alone or the peptide of SEQ ID No. 8 (1000 ng/ml) were cultured for 24 hr or for 48 h in standard differentiation medium. At each time point, the vehicle and treatment flasks were trypsinized, cells removed and total RNA was extracted for analysis via the Qiagen Rneasy Kit (Qiagen). 8 μg of total RNA were amplified and biotin labeled. The mixture was hybridized to a U95A human gene expression microarray (Affymetrix) containing probes for 12,600 human genes. The chips were then washed, stained with phycoerythrin-streptavidin and read with an Affymetrix scanner. Hybridization intensity values to mRNA frequency were calculated in molecules per million. Analysis of intensity values was conducted using Spotfire Decision Site (Somerville, Mass.) software.
# [3] = system: MC3T3-E1 subclone 4 cells; assay: BMP-2 stimulated PGE2 production by MC3T3 cells (ELISA); assay type: cell-based, mouse; settings: 24 hours, with BMP-2
# Method: Methods: MC3T3-E1 subclone 4 cells are neonatal mouse derived calvarial preosteoblasts with fibroblast morphology. […] For this experiment the MC3T3 cells were plated 10^5 cells per well in 24 well plates in growth medium (alpha MEM+1 mM sodium pyruvate+10% fetal bovine serum (FBS)). After 24 hours of culture the media was removed and replaced with assay media (alphaMEM+1 mM sodium pyruvate+2% FBS) containing the test substances. Each test group utilized 4 wells. After incubation for a further 24 hours the media was removed and the levels of PGE2 were determined using an ELISA (R&D Systems).
# hemi-calvariae [4] = assay: Mouse calvaria organ culture assay (PGE2 ELISA, histology); assay type: cell-based, Swiss Webster mice; settings: peptide 1, 10, 100 μg/mL daily for seven days
# Source text: Methods: Calvarial organ cultures have been used for many years to study the regulation of bone formation and bone resorption. An advantage of this method compared to in vivo studies is the absence of confounding effects (such as hormonal and mechanical influences) meaning a more direct effect of the test substances on bone tissue can be determined. Also compared to isolated cell systems, interrelationships between the different cell types in the bone and between these cells and the bone matrix are preserved.
# Briefly, hemi-calvariae were isolated from 4 day old Swiss Webster mice and incubated in media on steel mesh grids. The peptide of SEQ ID NO. […] Samples of the conditioned media were collected daily for analysis of PGE2 concentration (R&D Systems ELISA kit). At the end of the culture the bones were analyzed for new bone formation and number of osteoblasts using histology.
# dorsal muscle of mice = assay: Ectopic bone formation in mouse dorsal muscle with implanted polymer; assay type: in vivo, ICR mice
# Source text: It has been known that BMP causes bone formation when administered or implanted in mammals when given. The activity can be enhanced when given in the appropriate delivery vehicle.
# The mice were sacrificed 3 weeks later and the newly formed bones were isolated for evaluation using soft X-ray radiograph and bone mineral density determination.
# human mesenchymal cells = assay: PGE2 in human mesenchymal cells in culture; assay type: cell-based; settings: peptide alone
# [5] = system: hard tissue forming cells; assay: Biological activities for the purpose of the invention (test not specified)
# COX-2 mRNA [6] = settings: Nagel et al., Journal of Cellular Biochemistry, 2004; cited from earlier work
# hemi-calvariae [7] = settings: Middleton-Hardie et al., ASBMR 2005; cited from earlier work
sequence,measurement,setting,value
TDLQERGDNDISPFSGDGQPFKD [SEQ ID No. 8],ALP activity increase as compared with BMP-2 treated cells without the peptide,[1]; 2 μM peptide with 25 ng/mL BMP-2,~2 times
same,ALP activity in osteoblastic cells,"[1]; BMP-2 25 ng/mL plus peptide 0.2-4.0 μM, dose dependent",significantly increased
same,COX-2 mRNA increase (summary in discussion),COX-2 mRNA [2],~3 fold
same,COX-2 mRNA increase,COX-2 mRNA [2]; 24 h,3.6 fold
same,COX-2 mRNA increase,COX-2 mRNA [2]; 48 h,2.2 fold
same,BMP-2 induced PGE2 production,[3],increases
same,PGE2 production,hemi-calvariae [4],significant increases
same,bone cell density,hemi-calvariae [4]; histology,significant increases
same,osteoblast surface,hemi-calvariae [4]; histology,significant increases
same,parameters of new bone formation,hemi-calvariae [4]; histology,significant increases
same,Effect of the peptide on BMP-2 bone formation (size and mineral density of ectopic ossicles),"dorsal muscle of mice; 3 μg BMP-2 in 30 mg polymer, peptide 50, 250 or 1250 μg, three weeks",significant enhancement
same,Bone formation when peptide added to suboptimal dose of rhBMP-2,"dorsal muscle of mice; 3 μg rhBMP-2, varying amounts of peptide",significant and dose dependent increase
same,Efficacy of the peptide on bone formation (size and mineral density of ectopic ossicles),"dorsal muscle of mice; 5 μg BMP-2 in 30 mg polymer, peptide 50, 250 or 1250 μg, three weeks",unclear
same,PGE2 increase,human mesenchymal cells,did not result in a significant increase
same,Biological activities relative to other sequences,[5],highest activities
same,COX-2 in human mesenchymal stem cells,COX-2 mRNA [6],upregulated
same,production of PGE2 in mouse calvaria organ culture assay,hemi-calvariae [7],dose dependently upregulated
